Data set [1] has as its system methicillin resistant Staphylococcus pseudintermedius (MRSP) strains. As to the method: (§1) Forty isolates of S. pseudintermedius (30 MSSP and 10 MRSP) identified at the Indiana Animal Disease Diagnostic laboratory from specimens collected from dogs admitted to the small animal teaching hospital at Purdue University were included in the study (Tables 2 and 3). […] Vitek identification of S. pseudintermedius was confirmed by a positive coagulase test. Antimicrobial susceptibility was determined by broth microdilution using the SensiTitre (Trek).
(§2) The broth microdilution technique was used to determine the minimum inhibitory concentrations (MIC) of peptides and antibiotics in MHB in accordance with the Clinical and Laboratory Standards Institute (CLSI) guidelines. Peptides were dissolved in sterile distilled water containing 0.02% acetic acid. […] MIC was defined as the lowest concentration of peptide which inhibited the visible growth of bacteria. MIC was done in triplicates and the highest value was reported.

The subject of data set [2] is methicillin sensitive Staphylococcus pseudintermedius (MSSP) strains. As to the method: as §1, §2
In data set [3] the test system is S. pseudintermedius strains. The data set is classed as cell-based, Staphylococcus pseudintermedius. The following applies: 24 h. As to the method: The broth microdilution technique was used to determine the minimum inhibitory concentrations (MIC) of peptides and antibiotics in MHB in accordance with the Clinical and Laboratory Standards Institute (CLSI) guidelines. Peptides were dissolved in sterile distilled water containing 0.02% acetic acid. MIC assays were carried out with an initial bacterial inoculum of 5×10^5 colony forming unit (CFU/ml). Peptides and antibiotics were added to Polystyrene 96 well plates (CytoOne, CC7672-7596) at desired concentrations and plates were incubated for 24 hr at 37°C. MIC was defined as the lowest concentration of peptide which inhibited the visible growth of bacteria. MIC was done in triplicates and the highest value was reported.
(§3) Untreated cells were used as a negative control.

For data set [4], the system named is macrophage-like cell line (J774A.1). The data set is described as follows: Cytotoxicity, MTS assay, J774A.1. The settings on record: 24 h. It is filed as cell-based.
Method: Peptides were assayed at different concentrations against macrophage-like cell line (J774A.1) and human keratinocyte (HaCat) to determine the potential toxic effect in vitro. […] Untreated cells were used as a negative control. […] After incubation, the cells were washed three times with PBS and the media in each well were replaced with 100 µL of DMEM media and 20 µL of assay reagent, MTS 3-(4,5-dimethylthiazol-2-yl)-5-(3-carboxymethoxyphenyl)-2-(4-sulfophenyl)-2H-tetrazolium) (Promega, Madison, WI, USA). The cells were incubated further for 4 h at 37°C. Corrected absorbance readings (actual absorbance readings for each treatment subtracted from background absorbance) were taken using a kinetic ELISA microplate reader (Molecular Devices, Sunnyvale, CA, USA). Cell viability was expressed as percentage of absorbance in comparison to negative control, untreated cells.
Data set [5] concerns human keratinocyte (HaCat). The data set is described as follows: Cytotoxicity, MTS assay, HaCat. It is filed as cell-based. The settings on record: 24 h.
Source text: as §3

Data set [6] has as its system mammalian or microbial proteases. The settings on record: effect of the D-amino acids substitution; cited from earlier work. The text has this:
WR-12 is a broad-spectrum AMP and consists exclusively of arginine and tryptophan, arranged to form idealized amphipathic helices. […] Additionally, the D-amino acids ...

Converted amounts (≈) assume the structure as drawn. Non-standard residues stand in square brackets, D forms with d. Residues, ends and D or L forms follow the SMILES beside them. A value given as a limit tells only on which side of the number the result lay.

This is an account of results in PMC4281220, “Antibacterial Activity of Novel Cationic Peptides against Clinical Isolates of Multi-Drug Resistant Staphylococcus pseudintermedius from Infected Dogs” (PLoS ONE, 2014).

In data set [1], `CC[C@@H](C)[C@@H](N)C(=O)N[C@H](CCCNC(=N)N)C(=O)N[C@@H](C(=O)N[C@H](CCCCN)C(=O)N[C@@H](C(=O)N[C@H](CCCNC(=N)N)C(=O)N[C@@H](C(=O)N[C@H](CCCCN)C(=O)O)[C@H](C)CC)[C@H](C)CC)[C@H](C)CC` [IK8 “D isoform”] (H-[dI][dR][dI][dK][dI][dR][dI][dK]-OH) registered an MIC50 of 4 µM (≈ 4.16 µg/mL) and an MIC90 of 4 µM (≈ 4.16 µg/mL). Further, in data set [2], the MIC50 was determined as 4 µM (≈ 4.16 µg/mL) and the MIC90 worked out at 8 µM (≈ 8.32 µg/mL). The “GM MIC S. pseudintermedius” value in data set [3] was determined as 5 µM. In data set [4], the IC50 was > 256 µM and the “TI (Therapeutic index) J774A.1” value is listed as >51.2/>51.2. The IC50 in data set [5] was > 256 µM. Moreover, the “proteolytic degradation by mammalian or microbial proteases” value in data set [6] is listed as “prevented proteolytic degradation”.
